Results from US20060148876A1, “Nr3b1 nuclear receptor binding 3-substituted pyrazoles” (priority 2002, published 2006).
Entries after “also recorded” stand apart in the source; their conditions may differ.

Key:
[1] = test system: MDA-MB-231 cells; assay: Cell proliferation assay (CellTiter 96) in ER negative breast cancer cells; assay type: cell-based; conditions: 6 days treatment
Protocol: (§1) Cells were seeded in 96-well plates at a density of 15,000 (MDA-MB-231) or 10,000 (T47D) cells/100 μl/well in phenol red-free DMEM (Gibco-BRL) containing 10% (MDA-MB-231) or 2% (T47D) charcoal dextran treated FBS (Perbio Science GmbH). Treatment media containing either 0.1% DMSO (control) or 0.1% DMSO with increasing concentrations of compounds (as indicated) were added on the following day and replaced at 72 h intervals until the end of the experiment. At 6 days (MDA-MB-231) or 8 days (T47D) after initiation of the treatment a colorimetric proliferation assay was performed using CellTiter 96 Aqueous nonradioactive proliferation assay as directed by the manufacturer (Promega). Cell proliferation rates were measured as absorbance of the formazan product at 490 nm. Values are expressed as percentage of control (DMSO) and represent the means of three replicates.

[2] = test system: T47D cells; assay: Cell proliferation assay (CellTiter 96) in ER positive breast cancer cells; assay type: cell-based; conditions: 8 days treatment, 1 nM to 100 nM
Protocol: as §1

[3] = test system: human ERR alpha (NR3B1); assay: In vitro LANCE (TR-FRET) screening for compounds which influence ERRa binding to coactivator SRC1 peptide; assay type: biochemical; conditions: see figures
Protocol: The present invention relates to a compound as described above wherein said compounds is capable of binding the NR3B1 receptor protein or a portion thereof according to SEQ ID NO. 1 (cf. FIG. 3 A to D) or a mammalian homologue thereof. The claimed compound can bind to the NR3B1 receptor protein or a portion thereof in a mixture comprising 10-200 ng of NR3B1 receptor protein or a portion thereof, preferably the ligand binding domain, 20 mM Tris/HCl at pH 7.9; 60 mM KCl; 5 mM MgCl2; 160 ng/μl BSA in a total volume of preferably about 25 μl.
For screening purposes a fragment of the open reading frame of human ERR alpha (NR3B1-(Acc. No: NM_004451)) encoding aminoacids […] was amplified by standard RT PCR procedures (see figures; SEQ ID NO. 1 and 2). […]
For screening of compound libraries as provided for by the methods shown below in the examples for substances which influence the ERRa/SRC1 interaction, the Perkin Elmer LANCE technology was applied. […] For ease of handling and reduction of background from compound fluorescence LANCE technology makes use of generic fluorophore labels and time resoved detection (for detailed description see Hemmilä I, Blomberg K and Hurskainen P, Time-resolved resonance energy transfer (TRFRET) principle in LANCE, Abstract of Papers Presented at the 3 rd Annual Conference of the Society for Biomolecular Screening, September, California (1997)). […]

SMILES	effect on proliferation of MDA-MB-231 cells (ER negative) [1]	effect on proliferation of T47D cells (ER positive) [2]	effect on proliferation of T47D cells (ER positive) ([2]; listed as E2)	active as antagonist of the NR3B1 human nuclear receptor [3]
CC/C(=C(/CC)c1ccc(O)cc1)c1ccc(O)cc1 [DES, Diethylstilbestrol]	inhibited proliferation; also recorded: inhibit growth	stimulated; also recorded: stimulate the growth	–	–
C[C@]12CC[C@@H]3c4ccc(O)cc4CC[C@H]3[C@@H]1CC[C@@H]2O [17β-estradiol]	did not	stimulated	stimulate the growth	–
Cc1ccc(C)c(-c2cc(-c3ccc(O)cc3)nn2C)c1 [formula 5]	–	–	–	active as antagonist
Cc1cc(C)cc(-n2nc(-c3ccc(O)cc3)cc2-c2ccc(C)o2)c1 [formula 6]	–	–	–	active as antagonist
